According to paper PMC11272821, “Mechanistic safety assessment via multi-omic characterisation of systemic pathway perturbations following in vivo MAT2A inhibition” (Archives of Toxicology, 2024):
pIC50: −log10 of the molar value.

Experiments:
HepG2 Spheroid = test: HepG2 C3A 3D spheroid cytotoxicity; type: cell-based; settings: 3D spheroids; read-out: HepG2 Spheroid Cytotox IC50
Text: Full curve IC50 (µM) for hERG (human ether-a-go-go-related gene) and the cardiac ion channel panel (sodium and potassium ion channels; Nav1.5, IKs, Kv4.3), along with the L-type Calcium channel (Cav-1.2 Ver; verapamil, DIL; diltiazem), HepG2 C3A 3D spheroids, HepG2 C3A (2D cultures in glucose or galactose media), and THP1 cytotoxicity.

[1] = Plasma toxicokinetic analysis after twice daily oral dosing; type: in vivo; settings: rat, n = 5
Protocol: All in vivo experimental procedures were conducted in accordance with United Kingdom legislation (Animals (Scientific Procedures) Act, 1986) and were compliant with the ARRIVE guidelines. 8–10 week old male (210–230 g) Crl:WI Han Wistar rats (Charles River Laboratories Ltd, UK) were acclimatised to the facility for 10 days and then randomised to groups based on bodyweight.
A whole blood sample (32 µL) was collected via a tail vein prick into a K2EDTA treated capillary tube, centrifuged at 1,500 g for 10 min at 4 °C, and plasma collected using a micropipette (non-EDTA Ref.no. 172292, Vitrex Medical A/S, Denmark). Samples were collected on Day 1 and Day 7 at 1 h, 2 h, 4 h, 8 h (pre-second dose), 10 h and 24 h post the first dose.
Calibration and quality control samples were prepared in rat plasma with a target concentration range for quantification of 0.1 – 100 µmol/L. Sample preparation: 8 µl of plasma were diluted in 92 µl of 5% (w/v) bovine serum albumin in phosphate buffer and gently shaken for 10 min before 5 min centrifugation at 2400 g at 4°C. 25 µL were transferred to new tubes and 150 µl of acetonitrile containing an internal standard were added for protein precipitation. After thorough mixing and centrifugation for 5 min at 2400 g and 4°C, 75 µl of supernatant were transferred into new tubes and diluted in 150 µL water/HCOOH (100:0.2, v/v) then thoroughly vortexed and again centrifuged for 5 min at 2400 g and 4°C. 1.5 µl of the supernatant were injected for LC-MS/MS analysis utilizing an Acquity UPLC BEH C18, 2.1x50 […], 1.7 µ column at 60° C. Mobile phase A: Acetonitrile/HCOOH (100/0.2, v/v) and B: water/HCCOH (100/0.2, v/v). Flow rate: 0.75 mL/min.

## Cn1cc2cc(-c3cc4[nH]nc(C5CC5)c4n(-c4ccc(OC(F)F)cc4)c3=O)ccc2n1 [AZ’9567]
HepG2 Spheroid
  pIC50: 4.23
[1]; 3 mg/kg BID, day 1, mean ± SD
  Free AUC24h: 0.69 ± 0.07 µM·h
  Free Cmax: 40 ± 4 nM
  Free Cmin24h: 10 ± 1 nM
[1]; 3 mg/kg BID, day 7, mean ± SD
  Free AUC24h: 0.76 ± 0.11 µM·h
  Free Cmax: 50 ± 10 nM
  Free Cmin24h: 10 ± 2 nM
[1]; 10 mg/kg BID, day 1, mean ± SD
  Free AUC24h: 2.6 ± 1.1 µM·h
  Free Cmax: 210 ± 60 nM
  Free Cmin24h: 40 ± 20 nM
[1]; 10 mg/kg BID, day 7, mean ± SD
  Free AUC24h: 3.9 ± 0.70 µM·h
  Free Cmax: 270 ± 110 nM
  Free Cmin24h: 80 ± 30 nM
[1]; 30 mg/kg BID, day 1, mean ± SD
  Free AUC24h: 12 ± 1.1 µM·h
  Free Cmax: 870 ± 190 nM
  Free Cmin24h: 140 ± 40 nM
[1]; 30 mg/kg BID, day 7, mean ± SD
  Free AUC24h: 9.9 ± 2.2 µM·h
  Free Cmax: 680 ± 190 nM
  Free Cmin24h: 150 ± 50 nM
